Measurements from patent publication US12581252B2, “Substituted pyrrolo[3,4-b]pyridines as PI3K-α inhibitors” (Relay Therapeutics, Inc., priority 2020, dated 2026).
pIC50: −log10 of the molar value.

Molecular target: H1047R PIK3CA enzyme (Homo sapiens, UniProt P42336, H1047R)
Assay: ADP-Glo Biochemical PIK3CA Kinase Assay
Method: Compounds to be assayed were plated in 16 doses of 1:2 serial dilutions (20 nL volume each well) on a 1536-well plate, and the plate warmed to room temperature. […] To the well was added 1 μL of 200 μM ATP and 20 μM of diC8-PIP2 in Substrate Assay Buffer (50 mM HEPES pH7.4, 50 mM NaCl, 5 mM DTT and 0.03% CHAPS) to start the reaction, and the plate was shaken for 10 seconds, then spun briefly at 1500 rpm, and then incubated for 60 minutes at room temperature. The reaction was stopped by adding 2 μL of ADP-Glo reagent (Promega), and spinning briefly at 1500 rpm, and then incubating for 40 minutes. ADP-Glo Detection reagent (Promega) was added and the plate spun briefly at 1500 rpm, then incubated for 30 minutes.

Sequence of H1047R PIK3CA enzyme (P42336 whole entry H1047R): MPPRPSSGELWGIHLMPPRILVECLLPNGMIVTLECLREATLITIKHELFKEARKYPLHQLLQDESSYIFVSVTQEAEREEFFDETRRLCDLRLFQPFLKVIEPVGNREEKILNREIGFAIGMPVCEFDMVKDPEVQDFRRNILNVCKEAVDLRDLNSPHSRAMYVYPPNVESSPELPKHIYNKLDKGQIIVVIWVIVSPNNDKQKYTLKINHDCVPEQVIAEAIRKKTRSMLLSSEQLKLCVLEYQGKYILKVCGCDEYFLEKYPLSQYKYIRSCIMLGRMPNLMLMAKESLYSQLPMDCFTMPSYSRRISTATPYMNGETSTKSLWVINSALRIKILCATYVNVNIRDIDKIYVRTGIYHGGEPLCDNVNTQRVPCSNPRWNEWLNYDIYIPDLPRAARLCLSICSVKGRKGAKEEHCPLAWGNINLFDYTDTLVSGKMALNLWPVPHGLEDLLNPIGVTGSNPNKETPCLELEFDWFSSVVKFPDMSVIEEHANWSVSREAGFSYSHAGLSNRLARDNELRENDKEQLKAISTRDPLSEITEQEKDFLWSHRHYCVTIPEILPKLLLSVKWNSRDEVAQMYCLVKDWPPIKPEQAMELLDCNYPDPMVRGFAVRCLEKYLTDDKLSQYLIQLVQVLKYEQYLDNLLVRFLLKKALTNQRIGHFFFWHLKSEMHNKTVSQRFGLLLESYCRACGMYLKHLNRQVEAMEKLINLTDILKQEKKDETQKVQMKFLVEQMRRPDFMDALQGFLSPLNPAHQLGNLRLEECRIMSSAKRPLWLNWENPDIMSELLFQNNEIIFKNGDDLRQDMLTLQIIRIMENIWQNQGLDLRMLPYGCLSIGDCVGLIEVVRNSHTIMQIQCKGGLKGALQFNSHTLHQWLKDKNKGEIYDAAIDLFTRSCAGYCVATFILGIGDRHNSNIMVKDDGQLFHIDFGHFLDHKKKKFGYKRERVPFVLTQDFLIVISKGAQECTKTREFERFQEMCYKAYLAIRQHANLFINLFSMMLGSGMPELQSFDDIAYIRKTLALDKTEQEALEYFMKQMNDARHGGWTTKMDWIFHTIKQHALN
Sequence of H1047R PIK3CA enzyme (P27986 whole entry partner): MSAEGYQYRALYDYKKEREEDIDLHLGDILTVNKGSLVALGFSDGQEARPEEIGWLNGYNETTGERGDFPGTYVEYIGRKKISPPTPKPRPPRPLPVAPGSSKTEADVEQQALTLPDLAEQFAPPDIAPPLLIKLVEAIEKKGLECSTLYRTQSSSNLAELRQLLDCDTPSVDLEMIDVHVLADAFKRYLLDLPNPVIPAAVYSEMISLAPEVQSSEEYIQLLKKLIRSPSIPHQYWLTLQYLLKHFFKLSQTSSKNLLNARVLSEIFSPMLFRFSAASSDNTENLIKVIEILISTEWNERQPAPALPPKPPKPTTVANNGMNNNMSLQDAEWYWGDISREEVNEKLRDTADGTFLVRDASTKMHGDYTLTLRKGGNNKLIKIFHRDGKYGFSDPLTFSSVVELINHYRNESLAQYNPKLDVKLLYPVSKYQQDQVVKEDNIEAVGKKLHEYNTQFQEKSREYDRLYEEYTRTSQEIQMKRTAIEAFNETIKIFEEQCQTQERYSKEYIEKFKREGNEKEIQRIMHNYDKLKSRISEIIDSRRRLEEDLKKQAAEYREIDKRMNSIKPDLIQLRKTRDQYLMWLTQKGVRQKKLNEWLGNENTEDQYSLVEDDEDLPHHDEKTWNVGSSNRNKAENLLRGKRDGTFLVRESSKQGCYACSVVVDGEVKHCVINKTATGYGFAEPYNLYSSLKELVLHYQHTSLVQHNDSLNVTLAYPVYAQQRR

SMILES | pIC50
Cc1nn(C)c(C)c1-c1cc(NC(=O)c2cc(F)cc(Cl)c2)c2c(n1)C(=O)NC2c1cc(F)ccc1Cl (centres unmarked) [Compound I-410] | 6.00 to 6.30
CC1(F)CN(c2cc(NC(=O)c3cc(F)cc(C(F)(F)F)c3)c3c(n2)C(=O)NC3c2cc(F)ccc2Cl)C1 (centres unmarked) [Compound I-368] | 6.30 to 7.00
O=C(Nc1cc(C(O)C(F)(F)F)cc2c1C(c1cc(F)ccc1Cl)NC2=O)c1cc(F)cc(C(F)(F)F)c1 (centres unmarked) [Compound I-270, N-(3-(2-chloro-5-fluorophenyl)-1-oxo-6-(2,2,2-trifluoro-1-hydroxyethyl)isoindolin-4-yl)-3-fluoro-5-(trifluoromethyl)benzamide] | ≥ 7.00
O=C(Nc1cc(NC(=O)C2COC2)cc2c1C(c1cc(F)ccc1Cl)NC2=O)c1cc(F)cc(C(F)(F)F)c1 (centres unmarked) [Compound I-344] | ≥ 7.00
Cc1ccccc1C1NC(=O)c2cccc(NC(=O)c3n[nH]cc3Br)c21 (centres unmarked) [Compound I-411] | 4.00 to 5.00
O=C(Nc1cc(-c2ccc3ncnn3c2)cc2c1[C@@H](c1cc(F)ccc1Cl)NC2=O)c1cccc(C(F)(F)F)c1 (stereo in doubt) [Compound I-1116] | 4.00 to 5.00
CC(=O)Cc1cc(NC(=O)c2cc(F)cc(C(F)(F)F)c2)c2c(c1)C(=O)N[C@H]2c1cc(F)ccc1Cl [Compound I-624] | 6.30 to 7.00
Cc1ccccc1C1NC(=O)c2cccc(NC(=O)c3n[nH]cc3-c3ccccc3)c21 (centres unmarked) [Compound I-412] | 4.00 to 5.00
Cc1ccccc1C1NC(=O)c2cccc(NC(=O)c3ncsc3Br)c21 (centres unmarked) [Compound I-452] | 5.00 to 6.00
N#C[C@H]1C[C@@H](Oc2cc(NC(=O)c3cc(F)cc(C(F)(F)F)c3)c3c(c2)C(=O)NC3c2cc(F)ccc2Cl)C1 (mixture of isomers) [Compound I-1295] | ≥ 7.00
O=C1NC(c2cc(F)ccc2Cl)c2c(NC(=O)N3CC4(CCC4)c4ccccc43)cc(Br)cc21 (centres unmarked) [Compound I-1383] | 6.30 to 7.00
O=C(Nc1cc(Br)cc2c1C(c1cc(F)ccc1Cl)NC2=O)c1ccc(C(F)(F)F)s1 (centres unmarked) [Compound I-1427] | 5.00 to 6.00
Cc1ncc(-c2cc(NC(=O)c3cc(F)cc(Cl)c3)c3c(c2)C(=O)N[C@H]3c2cc(F)ccc2Cl)cn1 [Compound I-896] | ≥ 7.00
O=C(Nc1cc(-c2ccc3ncnn3c2)cc2c1[C@@H](c1cc(F)ccc1Cl)NC2=O)c1ccc(F)c(OC(F)(F)F)c1 (stereo in doubt) [Compound I-1108] | 5.00 to 6.00
O=C1NCc2c(NC(=O)N3CCCC[C@H]3Cc3ccccc3)cccc21 (stereo in doubt) [Compound I-988] | 4.00 to 5.00
O=C(Nc1cc(Br)cc2c1C(c1cc(F)ccc1Cl)NC2=O)c1ccc(F)cc1 (centres unmarked) [Compound I-525] | 4.00 to 5.00
O=C(Nc1cc(OCC2CCO2)cc2c1C(c1cc(F)ccc1Cl)NC2=O)c1cc(F)cc(C(F)(F)F)c1 (racemic) [Compound I-1366] | ≥ 7.00
O=C(Nc1cc(-c2ccc3ncnn3c2)cc2c1[C@@H](c1cc(F)ccc1C(F)F)NC2=O)c1cc(F)cc(C(F)(F)F)c1 (stereo in doubt) [Compound I-1055] | 5.00 to 6.00
O=C1NC(c2ccc(F)cc2Cl)c2c(NC(=O)c3csc4ccccc34)cccc21 (centres unmarked) [Compound I-102] | ≥ 7.00
O=C(Nc1cc(C#CC2COC2)cc2c1C(c1cc(F)ccc1Cl)NC2=O)c1cc(F)cc(C(F)(F)F)c1 (centres unmarked) [Compound I-1223] | ≥ 7.00
Cc1nc2ccccn2c1CC(=O)Nc1cc(Br)cc2c1C(c1cc(F)ccc1Cl)NC2=O (centres unmarked) [Compound I-603] | 4.00 to 5.00
CCC(=O)Nc1cc(NC(=O)c2cc(F)cc(C(F)(F)F)c2)c2c(c1)C(=O)NC2c1cc(F)ccc1Cl (centres unmarked) [Compound I-552] | ≥ 7.00
CCn1cc(-c2cc(NC(=O)c3cc(F)cc(C(F)(F)F)c3)c3c(c2)C(=O)NC3c2cc(F)ccc2Cl)ccc1=O (centres unmarked) [Compound I-649] | ≥ 7.00
Cc1ncc(C#N)c(-c2cc(NC(=O)c3cc(F)cc(C(F)(F)F)c3)c3c(c2)C(=O)NC3c2cc(F)ccc2Cl)n1 (centres unmarked) [Compound I-1369] | ≥ 7.00
Cc1c(F)cccc1C1NC(=O)c2cc(Br)cc(NC(=O)c3cc(F)cc(C(F)(F)F)c3)c21 (centres unmarked) [Compound I-751] | 6.30 to 7.00
CC(C)(O)c1cc(NC(=O)c2nsc3ccccc23)c2c(n1)C(=O)NC2c1ccccc1Cl (centres unmarked) [Compound I-250] | ≥ 7.00
Cn1ccc(Nc2cc(NC(=O)c3cc(F)cc(C(F)(F)F)c3)c3c(c2)C(=O)N[C@@H]3c2cc(F)ccc2Cl)n1 [Compound I-1072] | 6.00 to 6.30
O=C(Nc1cc(CS(=O)(=O)c2ccncc2)cc2c1C(c1cc(F)ccc1Cl)NC2=O)c1cc(F)cc(C(F)(F)F)c1 (centres unmarked) [Compound I-1495] | ≥ 7.00
N#C[C@H]1C[C@@H](c2cc(NC(=O)c3cc(F)cc(C(F)(F)F)c3)c3c(c2)C(=O)N[C@@H]3c2cc(F)ccc2Cl)C1 (single isomer, unassigned) [Compound I-1327] | ≥ 7.00
COC(=O)c1cc(Nc2cccc3c2C(c2cc(F)ccc2Cl)NC3=O)ncc1C(F)(F)F (centres unmarked) [Compound I-1238] | 5.00 to 6.00

Further lines, results first:

pIC50 | SMILES
≥ 7.00 | O=C1NC[C@H](c2cc(NC(=O)c3cc(F)cc(C(F)(F)F)c3)c3c(c2)C(=O)N[C@H]3c2cc(F)ccc2Cl)O1 (single isomer, unassigned) [Compound I-1559]
≥ 7.00 | N#Cc1cc2nccn2cc1-c1cc(NC(=O)c2cc(F)cc(C(F)(F)F)c2)c2c(c1)C(=O)N[C@H]2c1cc(F)ccc1Cl [Compound I-1586]
5.00 to 6.00 | O=C1C[C@H](c2cc(NC(=O)c3cc(F)cc(C(F)(F)F)c3)c3c(c2)C(=O)N[C@@H]3c2cc(F)ccc2Cl)CN1 (single isomer, unassigned) [Compound I-1711]
4.00 to 5.00 | COC(=O)C1CN(C(=O)Nc2cccc3c2C(c2cc(F)ccc2Cl)NC3=O)c2ccccc21 (centres unmarked) [Compound I-2317]
4.00 to 5.00 | C[C@H](O)c1cc(-c2ccc3ncnn3c2)cc2c1[C@H](c1cc(F)ccc1Cl)NC2=O (single isomer, unassigned) [Compound I-2229]
≥ 7.00 | N#Cc1c(-c2cc(NC(=O)c3cc(F)cc(C(F)(F)F)c3)c3c(c2)C(=O)N[C@H]3c2cc(F)ccc2Cl)cnn1C(F)F [Compound I-1921]
4.00 to 5.00 | O=C1NC(c2cc(F)ccc2Cl)c2c1cc(-c1ccc3ncnn3c1)cc2N1CCn2c(nnc2C(F)(F)F)C1 (centres unmarked) [Compound I-2040]
4.00 to 5.00 | O=C1NC(c2cc(F)ccc2Cl)c2c(NC(=O)C34CCC(CC3)O4)cc(-c3ccc4ncnn4c3)cc21 (centres unmarked) [Compound I-1966]
5.00 to 6.00 | O=C1NC(c2cc(F)ccc2Cl)c2c(NC(=O)n3nc(O)c4ccccc43)cccc21 (centres unmarked) [Compound I-2315]
6.30 to 7.00 | N#CC1(COc2cc(NC(=O)N3C[C@H](O)c4cc(F)ccc43)c3c(c2)C(=O)N[C@H]3c2cc(F)ccc2Cl)CC1 (single isomer, unassigned) [Compound I-2553]
4.00 to 5.00 | CN1C[C@@H](COc2cc(NC(=O)c3cc(F)cc(C(F)(F)F)c3)c3c(c2)C(=O)N[C@H]3c2cc(F)ccc2Cl)CC1=O (single isomer, unassigned) [Compound I-1524]
6.30 to 7.00 | O=C1N[C@@H](c2cc(F)ccc2Cl)c2c(NC(=O)N3C[C@H](O)c4ccccc43)cc(-c3ccc4ncnn4c3)cc21 (single isomer, unassigned) [Compound I-1576]
6.30 to 7.00 | Nc1nn(C(=O)Nc2cccc3c2C(c2cc(F)ccc2Cl)NC3=O)c2ccccc12 (centres unmarked) [Compound I-2381]
4.00 to 5.00 | O=C1NC(c2cc(F)ccc2Cl)c2c(NC(=O)c3noc4c3COCC4)cccc21 (centres unmarked) [Compound I-2232]
